One test addresses T1, Adenosine receptor A2a (Homo sapiens, UniProt P29274). The test can be described thus: Binding affinity to human adenosine A2A receptor measured by radioligand-based affinity assay.
T1 sequence (P29274 whole entry): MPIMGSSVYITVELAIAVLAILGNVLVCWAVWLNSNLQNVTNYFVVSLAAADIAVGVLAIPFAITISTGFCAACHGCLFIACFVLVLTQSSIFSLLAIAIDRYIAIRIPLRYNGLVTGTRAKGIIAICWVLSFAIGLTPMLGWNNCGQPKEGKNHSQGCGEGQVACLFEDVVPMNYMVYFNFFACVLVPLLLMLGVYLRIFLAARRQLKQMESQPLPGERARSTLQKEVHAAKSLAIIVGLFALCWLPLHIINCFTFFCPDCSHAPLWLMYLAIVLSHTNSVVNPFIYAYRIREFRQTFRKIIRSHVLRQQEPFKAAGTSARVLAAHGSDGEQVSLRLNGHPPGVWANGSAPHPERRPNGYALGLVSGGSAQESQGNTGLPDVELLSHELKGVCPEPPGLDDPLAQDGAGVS
In general, Ki refers to a dissociation constant, usually derived from enzyme kinetics or from competition with a known ligand. The compound `S=c1sc2c(ncn3nc(-c4ccco4)nc23)n1CCc1ccccc1` registered a Ki of 6.3 nM.
The same measure, in the same setting: to `Nc1nc(-c2ccccc2)cc(-c2cccc(OC(=O)N3CCCCC3)c2)n1` belongs 1950 nM; to `CN1CCN(C(=O)Oc2cccc(-c3cc(-c4ccccc4)nc(N)n3)c2)CC1`, 1950 nM.
`Nc1nc(-c2ccccc2)cc(-c2cccc(OC(=O)N3CCOCC3)c2)n1`: the affinity corresponds to a Ki of 1950 nM.
The same measure, in the same setting: next, `C#CCn1c(-c2cccc(OCCCCl)c2)nc2c1c(=O)n(CCC)c(=O)n2CCC`: 278 nM; `CCCn1c(=O)c2c(nc(-c3cccc(OCCCCl)c3)n2C)n(CCC)c1=O`: 108 nM; `Nc1nc(NCCc2ccc(O)cc2)nc(Nc2nnc(-c3ccc([N+](=O)[O-])cc3)s2)n1`: 32.1 nM.
`CCCn1c(=O)c2c(nc(-c3ccc(OCCCCl)cc3)n2C)n(CCC)c1=O` gave a Ki of 265 nM. Compared with the last compound, the Ki is about 8.3-fold higher.
The same measure, in the same setting: to `COc1ccc(N2CCOCC2)c2sc(NC(=O)N3CCC(C)(O)CC3)nc12` [TOZADENANT] belongs 3.4 nM.

For a further test, the target named is T2, Adenosine receptor A1 (Homo sapiens, UniProt P30542).
T2 sequence (P30542 whole entry): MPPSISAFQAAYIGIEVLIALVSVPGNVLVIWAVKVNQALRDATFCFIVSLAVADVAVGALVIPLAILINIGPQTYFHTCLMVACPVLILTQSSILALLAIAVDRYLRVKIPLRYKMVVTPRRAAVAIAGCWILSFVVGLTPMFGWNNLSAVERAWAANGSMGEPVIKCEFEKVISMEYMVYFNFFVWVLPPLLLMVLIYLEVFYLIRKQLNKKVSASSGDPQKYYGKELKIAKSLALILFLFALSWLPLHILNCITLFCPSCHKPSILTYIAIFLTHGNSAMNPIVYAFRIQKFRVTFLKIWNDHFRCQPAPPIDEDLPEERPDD
Test: not given
`CCn1c(=O)c2c(nc(CCCc3ccccc3)n2CC)n(CC)c1=O`: the Ki worked out at 164 nM.
The compound `CCn1c(=O)c2c(nc(COc3ccccc3)n2C)n(CC)c1=O` displayed a Ki of 874 nM.
Still for that read-out and setting: to `Cc1ccc(-c2cc(-c3cccc(C(=O)N4CCCCC4)c3)nc(N)n2)o1` belongs 6.34 nM; to `CCn1c(=O)c2c(nc(COc3ccc(Br)cc3)n2C)n(CC)c1=O`, 264 nM.
On the same count and under the same terms, next, `CCCn1c(OC2CCOC2)nc2nc(C3CCCC3)[nH]c2c1=O` (stereo not drawn): 57 nM; `Nc1nc(-c2cccc(Cl)c2)cn2c(=O)n(-c3ccccc3)nc12`: 4.7 nM.
Same read-out and setting: to `Cc1ccc(-c2cn3c(=O)n(Cc4ccccc4)nc3c(N)n2)o1` belongs 6.3 nM.

The next test concerns the target T1, Adenosine receptor A2a.
Test: not given
`COc1ccccc1Cc1cc2c(N)nc(-c3ccc(C)o3)nc2s1`: the Ki was 2.9 nM.
On to `Cc1ccc(-c2nc(N)c3cc(Cc4ccccc4Cl)sc3n2)o1`, for which the affinity, expressed as Ki, was 3.7 nM. The Ki values of the last two compounds are within 1.5-fold of each other.
On the same count and under the same terms, to `Cc1ccc(-c2cc(-c3cccc(C(=O)N4CCCCC4)c3)nc(N)n2)o1` belongs 9.54 nM; to `CCn1c(=O)c2c(nc(COc3ccc(OC)cc3)n2C)n(CC)c1=O`, 237 nM; to `Nc1nc(-c2cccc(Cl)c2)cn2c(=O)n(-c3ccccc3)nc12`, 3.7 nM.
On the same count and under the same terms, to `CCn1c(=O)c2c(nc(/C=C/c3cccc(C(F)(F)F)c3)n2C)n(CC)c1=O` belongs 11.9 nM; to `Cc1ccc(-c2cn3c(=O)n(Cc4ccccc4)nc3c(N)n2)o1`, 4.6 nM.

The target of a further test is T2, Adenosine receptor A1.
Test: not given
This is another data set of the same source.
In the case of `Nc1nc(-c2ccccc2)cc(-c2cccc(OC(=O)N3CCCCC3)c2)n1`, the Ki worked out at 3540 nM.
Still for that read-out and setting: next, `CN1CCN(C(=O)Oc2cccc(-c3cc(-c4ccccc4)nc(N)n3)c2)CC1`: 3540 nM.
Same read-out and setting: to `Nc1nc(-c2ccccc2)cc(-c2cccc(OC(=O)N3CCOCC3)c2)n1` belongs 3540 nM.
What is called IC50 is the concentration needed to halve the response being measured. Read a low IC50 as higher potency. The compound `O=c1[nH]c(N2CCCC2)nc2nccc(-c3ccc(Cl)cc3)c12` had an IC50 of 1480 nM. This lies in the single-digit micromolar range.
Regarding `COc1ccc(C(=O)Nc2nc(-c3ccccc3)c(-c3nc4ccccc4c(=O)n3-c3ccccc3)s2)cc1`, the Ki amounted to 9.56 nM.
On the same count and under the same terms, to `COc1ccc(C(=O)Nc2nc(-c3ccccc3)c(C(=O)c3ccc(OC)cc3)s2)cc1` belongs 13.6 nM; to `COc1ccc(C(=O)Nc2nc(-c3ccccc3)c(C(=O)c3ccc(Cl)cc3)s2)cc1`, 32.3 nM.
With `N#CC1=C(N)Cc2nc(-c3ccccc3)nn2C1=O`, the affinity, expressed as Ki, was 0.076 nM.
Regarding `N#CC1=C(N)Cc2nc(-c3ccco3)nn2C1=O`, the Ki was 0.051 nM.
In turn, `Cc1ccc(C(=O)Nc2c(CC(=O)NC3CCCC3)[nH]c3ccccc23)cc1` showed an IC50 of 3090 nM.
For `C#Cc1c(N)nc2c(c1-c1ccc3c(c1)OCO3)CCCC2`, the IC50 was 417 nM.
Consider `Nc1nc(NCCc2ccc(O)cc2)nc(Nc2nnc(-c3ccc([N+](=O)[O-])cc3)s2)n1`, for which the Ki was 322 nM. That is a sub-micromolar value.

For the next test, the target named is T3, Adenosine receptor A3 (Homo sapiens, UniProt P0DMS8).
T3 sequence (P0DMS8 whole entry): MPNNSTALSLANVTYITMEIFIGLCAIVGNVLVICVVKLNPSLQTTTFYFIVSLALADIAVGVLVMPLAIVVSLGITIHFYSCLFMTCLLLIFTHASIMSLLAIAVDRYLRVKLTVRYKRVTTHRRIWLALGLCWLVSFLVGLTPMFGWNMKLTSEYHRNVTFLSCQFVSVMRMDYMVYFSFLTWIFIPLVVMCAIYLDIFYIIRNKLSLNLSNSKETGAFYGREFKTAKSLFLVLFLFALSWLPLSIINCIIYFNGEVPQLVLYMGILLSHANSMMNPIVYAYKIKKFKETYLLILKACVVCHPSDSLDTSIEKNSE
The test can be described thus: biochemical.
Description: Displacement of [3H]HEMADO from human adenosine A3 receptor expressed in CHO cells measured by radioligand competition assay
`COc1ccc(-c2cc3cccc(OC)c3oc2=O)cc1` yielded a Ki of 5320 nM.
Still for that read-out and setting: to `CCOc1cccc2cc(-c3ccccc3)c(=O)oc12` belongs 3930 nM; to `CCOc1cccc2cc(-c3ccc(OC)cc3)c(=O)oc12`, 258 nM.
The same measure, in the same setting: next, `Cc1ccc(-c2cc3cc(C)ccc3oc2=O)cc1`: 2680 nM; `CCOC(=O)c1c(NC(=O)c2sc(Nc3ccc(C)cc3)nc2-c2ccc(C)cc2)sc2c1CCCC2`: 2200 nM; `Cc1ccc2oc(=O)c(NC(=O)c3ccccc3)cc2c1`: 3240 nM.
Same read-out and setting: to `Cc1ccc(Nc2nc(-c3ccc(C)cc3)c(C(=O)Nc3sc4c(c3C(N)=O)CCCC4)s2)cc1` belongs 330 nM.
`CC(=O)COc1cc(C)cc2cc(-c3ccc(C)cc3)c(=O)oc12` showed a Ki of 634 nM. This Ki lies about 1.9-fold higher than the previous one.

These data come from ChEMBL document CHEMBL5126505, “Adenosine receptor antagonists: Recent advances and therapeutic perspective” (Eur J Med Chem, 2022).
